Data published in patent US11878972B2, “Treatment of neurological disorders” (TORQUR AG, priority 2016, dated 2024).

How the values were obtained:
Tsc1GFAP knockout mice = test: Electrographic seizures in Tsc1 GFAP conditional knockout mice
Description: Tsc1 mice belonging to either sex were acclimated to the environment, examined, handled, and weighed prior to initiation of the study to assure adequate health and suitability and to minimize non-specific stress associated with human handling. During the course of the study, 12/12 light/dark cycles were maintained. The room temperature was maintained between 20 and 23° C. with a relative humidity maintained around 50%. Food and water were provided ad libitum for the duration of the study. Each mouse was randomly assigned to designated treatment groups. The dosing was performed during the animals' light cycle phase.
Aseptic technique was used throughout the surgical procedures described below. […] Adequate plane of anesthesia was insured by the lack of a withdrawal response to toe pinch and a visible change in the breathing rate. The mouse head was immobilized in a stereotaxic frame with a nose piece that supplied the anesthetic continuously. Ophthalmic ointment was applied to the eyes to prevent drying of the cornea. […]
EEG was recorded using 10× or 100× gain pre-amplifiers. […]
Simultaneously, videographic recording was made through this period to provide a data stream for behavioral evaluation of the mice as needed. After the recording period was completed, individual EEG traces were evaluated for aberrant EEG activity. […]

[1] = tested on: LC3-II in STHdh^Q7/Q7 and STHdh^Q111/Q111 cells; test: Induction of autophagy in STHdh cells (LC3-II, western blot); assay type: cell-based, mouse; conditions: striatal cells, 4 hours, presence and absence of Bafilomycin A
Description: In order to test whether Cpd. 3 and Cpd. 8 inhibit mTOR signaling and induce autophagy in neuronal cell models of HD, treatment of STHdh^Q111/Q111 and STHdh^Q7/Q7 cells was employed. […] Cells were seeded in 10 cm dishes. When cells were about 80% confluent, cells were differentiated and treated with compounds at the same time. Cells were treated with Cpd. 3 (200 nM, 400 nM, 1230 nM), Cpd. […] At the end of incubation time cells were washed with cold PBS buffer and lysed with 200 μl of RIPA buffer supplemented with 4% Complete protease inhibitor (Roche, Switzerland) and 10% PhosStop (Roche, Switzerland). After 30 min of incubation on ice, lysates were vortexed, centrifuged (20 min, 4° C., 16000 rpm) and supernatants were collected. Protein concentration was determined as described above. 30 μg of protein per sample was analyzed by western blot as described above using the following primary antibodies:
In order to detect levels of LC3-II, an autophagy marker in autophagosomes, cell treatment was performed in the presence and absence of Bafilomycin A, an inhibitor of autophagosome degradation. Thus compounds lead to accumulation of LC3-II levels when autophagy is induced. Cpd. 3 (FIG. 6C) and Cpd. […] For Cpd. […] Cpd.

[2] = tested on: 51Q-HTT-Exon1-eGFP transfected HEK cells; test: Filter trap assay of mutHTT aggregates; assay type: cell-based, human; conditions: 8 hours; Cpd. 3 400, 1230 nM; Cpd. 8 130, 1230 nM; INK128 100 nM; Rapamycin 400 nM
Description: HEK cells were transiently transfected with pcDNA3.1/V5-His vector from Clontech (Mountain View, USA) containing the expression sequence for Exon1 of HTT with a 19Q (no aggregation) or 51Q extension and enhanced green fluorescence protein (eGFP) tag using Attractene Transfection Reagent (Qiagen, Netherlands). 1×10^6 cells were seeded in a 6 well plate. On the next day 2 μg DNA were mixed with 95.5 μl transfection media and 4.5 μl transfection reagent. After an incubation time of 15 min the mixture was added to the cells. After 72 hours cells were harvested or fixed for analysis.
HEK cells transfected with 19Q- or 51Q-HTT-Exon1-eGFP were treated with DMSO control. 51Q-HTT-Exon I-eGFP HEK cells form aggregates. These cells were treated with Cpd. 3 (400, 1230 nM), Cpd. […] After 30 min incubation on ice, cells were homogenized (Dounce Homogenizer, Thermo Fisher, USA). 50 μg of protein solution in PBS was supplemented with 2% SDS (Roth, Germany). Samples were sucked through a nitrocellulose membrane (0.45 μm) and washed twice with PBS buffer.

What does the source list for Nc1cc(C(F)F)c(-c2nc(N3C4CCC3COC4)nc(N3C4CCC3COC4)n2)cn1 [Compound 3, 5-(4-(3-oxa-8-azabicyclo[3.2.1]octan-8-yl)-6-(3-oxa-8-azabicyclo[3.2.1]octan-8-yl)-1,3,5-triazin-2-yl)-4-(difluoromethyl)pyridin-2-amine]?
Body weight (Tsc1GFAP knockout mice; TSC1 GFAP mice, during treatment): higher towards the end of the study; effect on spontaneous electrographic seizures (Tsc1GFAP knockout mice; Tsc1 GFAP mice, chronic treatment): strongly reduce spontaneous seizures; autophagy (LC3-II levels) [1]: induced autophagy in striatal cells; mutHTT aggregates (filter trap) [2]: significant reduction of cytotoxic mutHTT aggregates
